Entries after “also recorded” stand apart in the source; their conditions may differ.
Tested on: M1 macrophages and M2 macrophages differentiated from mouse bone marrow cells
Assay: Subtype identification by staining and flow cytometry of M1 and M2 macrophages differentiated from mouse bone marrow cells
Format: cell-based, Balb/c mouse
Settings: for Selectivity: subtype strongly stained; for subtype more strongly stained: two compounds used in combination, each 1 μM
Method: The culture of subtypes was performed according to a protocol described in NPL 7. Specifically, bone marrow cells collected from the femur of a Balb/c mouse of 8 to 10 weeks old were dispersed to a concentration of 1×10^6/mL in an IMDM containing 20% FBS and 1% P/S, and 1×10^7 cells were seeded in a 100 mm dish. After further adding an M-CSF (manufactured by Pepro Tech) thereto to a concentration of 50 ng/mL, the cells were incubated for 3 to 4 days in the presence of 5% CO2 at 37° C., so as to differentiate macrophage precursor cells to macrophages. After exchanging the medium, the M-CSF was added to a concentration of 50 ng/mL, and the incubation was performed for further 3 to 4 days in the presence of 5% CO2 at 37° C., and then, the resulting cells were differentiated to macrophage. By adding 200 ng of interferon-γ and 1 μg of […] (both manufactured by Pepro Tech) to the IMDM containing 5% FBS and 1% P/S, the cells were differentiated to the subtype M1. Besides, by adding 100 ng of IL-4 to the IMDM containing 5% FBS and 1% P/S, the cells were differentiated to the subtype M2. After performing the incubation for further 3 days in the presence of 5% CO2 at 37° C., the resultant was rinsed with PBS, and PBS containing 0.25% trypsin and 1 mM EDTA (ethylenediaminetetraacetic acid) was used for collecting, from the dish, the macrophages having been differentiated to the subtypes M1 and M2.
Thereafter, the tube was centrifuged at 180 G for 10 minutes to remove the supernatant, a dye for identifying dead cells (aqua fluorescent reactive dye, manufactured by Invitrogen; which is hereinafter sometimes abbreviated as aqua) was added thereto, and the resultant was incubated at 4° C. for 10 minutes. Subsequently, the tube was centrifuged at 180 G for 10 minutes to remove the supernatant, cells were suspended in a FACS buffer to be analyzed by using FACSCanto (trademark) II flow cytometry apparatus manufactured by BD.
The analysis was performed on a cell population showing a low signal for the aqua, so as to analyze a cell population from which dead cells were eliminated. […] A histogram was prepared by plotting fluorescence intensity obtained in the FITC channel on the abscissa and plotting the number of cells at each fluorescence intensity on the ordinate, which is shown in FIG. 2.
Histograms were prepared by plotting fluorescence intensities obtained in the respective channels on the abscissa and plotting the numbers of cells at each fluorescence intensity on the ordinate. A difference between a fluorescence intensity (FM1) at a peak top of the histogram of the M1 macrophage and a fluorescence intensity (FM2) at a peak top of the histogram of the M2 macrophage is divided by a sum of a peak width (WM1) of the histogram of the M1 macrophage and a peak width (WM2) of the histogram of the M2 macrophage, so as to obtain a resolution R, which was used as an index of the identification ability for a subtype (see the following expression (1)). Resolution R=|FM1−FM2|/(WM1+WM2) Expression (1)

[1] = M1 vs M2 macrophages from mouse bone marrow cells, general formula (6) dyes (Table 7)
[2] = class based on resolution R, general formula (6) dyes (Table 7)
[3] = mouse bone marrow-derived M1 macrophages, channel listed per compound, general formula (6) dyes (Table 7)
[4] = mouse bone marrow-derived M2 macrophages, channel listed per compound, general formula (6) dyes (Table 7)
[5] = M1 vs M2 macrophages from mouse bone marrow cells, general formula (10) dyes (Table 8)
[6] = class based on resolution R, general formula (10) dyes (Table 8)
[7] = mouse bone marrow-derived M1 macrophages, channel listed per compound, general formula (10) dyes (Table 8)
[8] = mouse bone marrow-derived M2 macrophages, channel listed per compound, general formula (10) dyes (Table 8)
[9] = M1 vs M2 macrophages from mouse bone marrow cells, general formula (11) dyes (Table 9)
[10] = class based on resolution R, general formula (11) dyes (Table 9)
[11] = mouse bone marrow-derived M1 macrophages, channel listed per compound, general formula (11) dyes (Table 9)
[12] = mouse bone marrow-derived M2 macrophages, channel listed per compound, general formula (11) dyes (Table 9)
[13] = fluorescence intensity at peak top of histogram, compound 1 μM, 37° C., 30 minutes

Compound	Resolution ratio R [1]	Evaluation of macrophage subtype identification [2]	Peak position of M1 macrophage [3]	Peak position of M2 macrophage [4]	Resolution ratio R [5]	Evaluation of macrophage subtype identification [6]	Peak position of M1 macrophage [7]	Peak position of M2 macrophage [8]	further results
CN1/C(=C\C=C\C2=[N+](C)c3ccccc3C2(C)C)C(C)(C)c2ccccc21 [(95)]	0.421	B (the compound is good in the subtype identification (namely, the resolution R is 0.15 or more and less than 0.5))	71.57	133.45	–	–	–	–	–
CCN1/C(=C\C=C\c2oc3ccccc3[n+]2CC)Oc2ccccc21 [(98)]	0.507	A (The compound is very good in the subtype identification (namely, the resolution R is 0.5 or more))	21.95	61.59	–	–	–	–	–
CCN1/C(=C\C=C\C2=[N+](CC)c3ccccc3C23CCCCC3)C2(CCCCC2)c2ccccc21 [(99)]	0.673	A (The compound is very good in the subtype identification (namely, the resolution R is 0.5 or more))	191.14	331.51	–	–	–	–	–
CCN1/C(=C\C=C\c2sc3ccccc3[n+]2CC)Sc2ccccc21 [(100)]	0.372	B (the compound is good in the subtype identification (namely, the resolution R is 0.15 or more and less than 0.5))	16.41	32.87	–	–	–	–	–
CCN1/C(=C\C=C\c2ccc3ccccc3[n+]2CC)C=Cc2ccccc21 [(104)]	0.698	A (The compound is very good in the subtype identification (namely, the resolution R is 0.5 or more))	95.26	197.19	–	–	–	–	Selectivity (general formula (6) dyes (Table 7)): M2
CCN(CC)c1ccc2cc(-c3nc4ccccc4n3C)c(=O)oc2c1 [(119)]	–	–	–	–	0.273	B (the compound is good in the subtype identification (namely, the resolution R is 0.15 or more and less than 0.5))	2.60	3.94	–
CCN(CC)c1ccc2cc(-c3nc4cc(Cl)ccc4s3)c(=O)oc2c1 [(122)]	–	–	–	–	0.377	B (the compound is good in the subtype identification (namely, the resolution R is 0.15 or more and less than 0.5))	142	211	–
CCN(CC)c1ccc2cc(-c3nc4cc(C(=O)O)ccc4o3)c(=O)oc2c1 [(127)]	–	–	–	–	0.381	B (the compound is good in the subtype identification (namely, the resolution R is 0.15 or more and less than 0.5))	3.99	6.00	–
CCN(CC)c1ccc2cc(-c3nc4ccccc4[nH]3)c(=O)oc2c1 [(131)]	–	–	–	–	0.480	B (the compound is good in the subtype identification (namely, the resolution R is 0.15 or more and less than 0.5))	8.06	13.5	–
CCN(CC)c1ccc2cc(-c3nc4ccc(OC)cc4o3)c(=O)oc2c1 [(132)]	–	–	–	–	0.624	A (The compound is very good in the subtype identification (namely, the resolution R is 0.5 or more))	30.3	53.8	–
CC1(C)CCN2CCC(C)(C)c3c2c1cc1cc(-c2nc4ccccc4s2)c(=O)oc31 [(138)]	–	–	–	–	0.312	B (the compound is good in the subtype identification (namely, the resolution R is 0.15 or more and less than 0.5))	20.6	28.0	–
CC1=CC(C)=[N+]2C1=C(c1ccccc1)c1c(C)cc(C)n1[B-]2(F)F [(148)]	–	–	–	–	–	–	–	–	Resolution ratio R [9]: 0.193; Evaluation of macrophage subtype identification [10]: B (the compound is good in the subtype identification (namely, the resolution R is 0.15 or more and less than 0.5)); Peak position of M1 macrophage [11]: 109; Peak position of M2 macrophage [12]: 151
Cc1cc(C)n2c1C=C1C=CC(CCC(=O)O)=[N+]1[B-]2(F)F [(157)]	–	–	–	–	–	–	–	–	Resolution ratio R [9]: 0.637; Evaluation of macrophage subtype identification [10]: A (The compound is very good in the subtype identification (namely, the resolution R is 0.5 or more)); Peak position of M1 macrophage [11]: 2.57; Peak position of M2 macrophage [12]: 5.62
CC1=C(S(=O)(=O)O)C(C)=[N+]2C1=C(C)c1c(C)c(S(=O)(=O)O)c(C)n1[B-]2(F)F [(165)]	–	–	–	–	–	–	–	–	Resolution ratio R [9]: 0.183; Evaluation of macrophage subtype identification [10]: B (the compound is good in the subtype identification (namely, the resolution R is 0.15 or more and less than 0.5)); Peak position of M1 macrophage [11]: 1.25; Peak position of M2 macrophage [12]: 2.00
Cc1cc(C)n2c1C=C1C=CC(CCC(=O)NN)=[N+]1[B-]2(F)F [(166)]	–	–	–	–	–	–	–	–	Resolution ratio R [9]: 0.722; Evaluation of macrophage subtype identification [10]: A (The compound is very good in the subtype identification (namely, the resolution R is 0.5 or more)); Peak position of M1 macrophage [11]: 127; Peak position of M2 macrophage [12]: 56.3
Cc1cc(C)n2c1C=C1C=CC(CCC(=O)c3c(F)c(F)c(S(=O)(=O)O)c(F)c3F)=[N+]1[B-]2(F)F [(167)]	–	–	–	–	–	–	–	–	Resolution ratio R [9]: 0.525; Evaluation of macrophage subtype identification [10]: A (The compound is very good in the subtype identification (namely, the resolution R is 0.5 or more)); Peak position of M1 macrophage [11]: 14.5; Peak position of M2 macrophage [12]: 7.82
CCN(CC)c1ccc2cc(C(=O)c3cc4ccc(N(CC)CC)cc4oc3=O)c(=O)oc2c1 [comparative compound (4), reference compound]	–	–	–	–	0.053	C (the compound cannot identify the subtypes (namely, the resolution R is less than 0.15))	0.88	1.05	difference in the staining intensity between the M1 macrophages and the M2 macrophages / identification (mouse bone marrow derived): no difference in the staining intensity; Selectivity (general formula (10) dyes (Table 8)): No
COc1ccc(N2c3ccc(/C=C4\C(=O)N(c5ccccc5)N=C4C(=O)O)cc3C3CCCC32)cc1 (centres unmarked) [compound (33)]	–	–	–	–	–	–	–	–	Resolution ratio R (R=|FM1−FM2|/(WM1+WM2), compound 1 μM): 0.522; Peak position of M1 macrophage [13]: 5.00; Peak position of M2 macrophage [13]: 9.05; Evaluation of macrophage subtype identification (rated from resolution R): A (The compound is very good in the subtype identification (namely, the resolution R is 0.5 or more)); subtype more strongly stained: the M2 macrophages are more strongly stained than the M1 macrophages
CCN1C(=C/C=C/c2n(CC)c3cc(Cl)c(Cl)cc3[n+]2CC)N(CC)c2cc(Cl)c(Cl)cc21 [compound (103)]	0.597	A (The compound is very good in the subtype identification (namely, the resolution R is 0.5 or more))	2.97	8.23	–	–	–	–	subtype more strongly stained: the M2 macrophage shows a higher fluorescence intensity in the PE-Cy7 channel than the M1 macrophage
CN1/C(=C/C2=C([O-])C(=C/C3=[N+](C)c4ccccc4C3(C)C)/C2=O)C(C)(C)c2ccccc21 [compound (113)]	0.857	A (The compound is very good in the subtype identification (namely, the resolution R is 0.5 or more))	9.05	21.39	–	–	–	–	subtype more strongly stained: the M2 macrophage shows a higher fluorescence intensity in the APC-Cy7 channel than the M1 macrophage; also recorded: the M2 macrophages are more strongly stained than the M1 macrophages
